Measured values from patent US20260297080A1, “BICYCLIC COMPOUNDS AS CDK INHIBITORS” (BeOne Medicines I GmbH, priority 2022, published 2026).
pIC50: −log10 of the molar value.

Columns and labels:
CDK1/Cyclin B1 = CDK1/Cyclin B1 (Homo sapiens, UniProt P06493); test: CDK1/Cyclin B1 Biochemical Assay (TR-FRET), 0.015 mM ATP; conditions: 0.15 μM Rb (Ser780)-biotin substrate, pH7.0, 60 min preincubation, 120 min reaction, room temperature
Procedure, shortened: (§1)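 TR-FRET assay with 0.15 μM Rb (Ser780)-biotin substrate and 0-10 μM compound in 50 mM HEPES pH7.0, 50 mM MgCl2, 1 mM DTT. ATP was 0.060 mM for CDK2/Cyclin E1 and 0.015 mM for CDK1/Cyclin B1. Kinase was preincubated with compound 60 min, reacted 120 min at room temperature, and IC50 was fitted (four-parameter) from the 665/620 nm ratio.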

CDK2/Cyclin E1 = CDK2/Cyclin E1 (Homo sapiens, UniProt P24941); test: CDK2/Cyclin E1 Biochemical Assay (TR-FRET), 0.060 mM ATP; conditions: 0.15 μM Rb (Ser780)-biotin substrate, pH7.0, 60 min preincubation, 120 min reaction, room temperature
Procedure, shortened: as §1

Sequence of CDK1/Cyclin B1 (P06493 whole entry): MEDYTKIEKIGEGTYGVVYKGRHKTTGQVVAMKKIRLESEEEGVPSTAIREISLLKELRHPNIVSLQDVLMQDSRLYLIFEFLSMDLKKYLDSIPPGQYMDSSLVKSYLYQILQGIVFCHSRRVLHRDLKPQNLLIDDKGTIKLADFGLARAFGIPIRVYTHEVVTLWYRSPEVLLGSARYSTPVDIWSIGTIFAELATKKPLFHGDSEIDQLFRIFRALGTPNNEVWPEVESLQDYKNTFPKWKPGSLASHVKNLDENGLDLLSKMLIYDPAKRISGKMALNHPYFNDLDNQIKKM
Sequence of CDK1/Cyclin B1 (P14635 whole entry partner): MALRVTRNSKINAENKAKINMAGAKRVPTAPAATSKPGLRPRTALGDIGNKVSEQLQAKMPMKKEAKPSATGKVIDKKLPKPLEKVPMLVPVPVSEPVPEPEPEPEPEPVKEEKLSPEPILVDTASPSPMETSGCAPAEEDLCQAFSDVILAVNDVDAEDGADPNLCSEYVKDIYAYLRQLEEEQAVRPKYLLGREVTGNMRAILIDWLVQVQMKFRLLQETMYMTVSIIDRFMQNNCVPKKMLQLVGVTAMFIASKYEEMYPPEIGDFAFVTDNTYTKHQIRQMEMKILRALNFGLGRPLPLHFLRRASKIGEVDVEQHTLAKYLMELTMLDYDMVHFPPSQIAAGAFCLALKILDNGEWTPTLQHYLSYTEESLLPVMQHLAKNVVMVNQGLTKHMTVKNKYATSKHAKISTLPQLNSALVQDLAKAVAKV

Compound	pIC50 (CDK1/Cyclin B1)	pIC50 (CDK2/Cyclin E1)
CC(C)NC(=O)O[C@H]1CC[C@@H](c2cc(Nc3ccc4c(c3F)CN(C3CN(C(c5ccccc5)c5ccccc5)C3)S4(=O)=O)n[nH]2)C1 (relative stereo) [Example 94, cis-3-(3-((2-(1-benzhydrylazetidin-3-yl)-4-fluoro-1,1-dioxido-2,3-dihydrobenzo[d]isothiazol-5-yl)amino)-1H-pyrazol-5-yl)cyclopentyl isopropylcarbamate]	< 5.00	6.48
CC(C)NC(=O)O[C@H]1CC[C@@H](c2cc(Nc3ccc4c(c3F)CN(CC3CC3)S4(=O)=O)n[nH]2)C1 (relative stereo) [Example 95, cis-3-(3-((2-(cyclopropylmethyl)-4-fluoro-1,1-dioxido-2,3-dihydrobenzo[d]isothiazol-5-yl)amino)-1H-pyrazol-5-yl)cyclopentyl isopropylcarbamate]	6.01	7.82
CC(C)NC(=O)O[C@H]1CC[C@@H](c2cc(Nc3ccc4c(c3F)CN(CC3CCC3)S4(=O)=O)n[nH]2)C1 (relative stereo) [Example 96, cis-3-(3-((2-(cyclobutylmethyl)-4-fluoro-1,1-dioxido-2,3-dihydrobenzo[d]isothiazol-5-yl)amino)-1H-pyrazol-5-yl)cyclopentyl isopropylcarbamate]	5.70	7.44
CC(C)NC(=O)O[C@H]1CC[C@@H](c2cc(Nc3ccc4c(c3F)CN(C[C@@H](N)C(C)(C)C)S4(=O)=O)n[nH]2)C1 (relative stereo) [Example 98, cis-3-(3-((2-((S)-2-amino-3,3-dimethylbutyl)-4-fluoro-1,1-dioxido-2,3-dihydrobenzo[d]isothiazol-5-yl)amino)-1H-pyrazol-5-yl)cyclopentyl isopropylcarbamate]	5.72	7.70
CC(C)CN1Cc2c(ccc(Nc3cc([C@@H]4CC[C@H](OC(=O)NC(C)C)C4)[nH]n3)c2F)S1(=O)=O (relative stereo) [Example 101, cis-3-(3-((4-fluoro-2-isobutyl-1,1-dioxido-2,3-dihydrobenzo[d]isothiazol-5-yl)amino)-1H-pyrazol-5-yl)cyclopentyl isopropylcarbamate]	5.99	8.00
CC(C)NC(=O)O[C@H]1CC[C@@H](c2cc(Nc3ccc4c(c3F)CN(CC3CNC3)S4(=O)=O)n[nH]2)C1 (relative stereo) [Example 105, cis-3-(3-((2-(azetidin-3-ylmethyl)-4-fluoro-1,1-dioxido-2,3-dihydrobenzo[d]isothiazol-5-yl)amino)-1H-pyrazol-5-yl)cyclopentyl isopropylcarbamate]	6.16	8.08
CC(C)NC(=O)O[C@H]1CC[C@@H](c2cc(Nc3ccc4c(c3F)CN(CC3CN(C)C3)S4(=O)=O)n[nH]2)C1 (relative stereo) [Example 106, cis-3-(3-((4-fluoro-2-((1-methylazetidin-3-yl)methyl)-1,1-dioxido-2,3-dihydrobenzo[d]isothiazol-5-yl)amino)-1H-pyrazol-5-yl)cyclopentyl isopropylcarbamate]	6.20	8.22
CC(C)NC(=O)O[C@H]1CC[C@@H](c2cc(Nc3ccc4c(c3F)CN(CC3CCCCC3)S4(=O)=O)n[nH]2)C1 (relative stereo) [Example 108, cis-3-(3-((2-(cyclohexylmethyl)-4-fluoro-1,1-dioxido-2,3-dihydrobenzo[d]isothiazol-5-yl)amino)-1H-pyrazol-5-yl)cyclopentyl isopropylcarbamate]	< 5.00	7.43
CC(C)NC(=O)O[C@H]1CC[C@@H](c2cc(Nc3ccc4c(c3F)CN(C3CCCC3O)S4(=O)=O)n[nH]2)C1 (relative stereo) [Example 109, cis-3-(3-((4-fluoro-2-(2-hydroxycyclopentyl)-1,1-dioxido-2,3-dihydrobenzo[d]isothiazol-5-yl)amino)-1H-pyrazol-5-yl)cyclopentyl isopropylcarbamate]	5.92	7.96
C[C@@H](CO)NC(=O)O[C@H]1CC[C@@H](c2cc(Nc3ccc4c(c3F)CN(C3CC3)S4(=O)=O)n[nH]2)C1 (relative stereo) [Example 120, cis-3-(3-((2-cyclopropyl-4-fluoro-1,1-dioxido-2,3-dihydrobenzo[d]isothiazol-5-yl)amino)-1H-pyrazol-5-yl)cyclopentyl((S)-1-hydroxypropan-2-yl)carbamate]	6.11	7.49

Now those with a higher pIC50 (CDK1/Cyclin B1), led by results:

pIC50 (CDK1/Cyclin B1)	pIC50 (CDK2/Cyclin E1)	Compound
6.27	8.20	CC(C)NC(=O)O[C@H]1CC[C@@H](c2cc(Nc3ccc4c(c3F)CN(C3CCN(C)C3=O)S4(=O)=O)n[nH]2)C1 (relative stereo) [Example 93, cis-3-(3-((4-fluoro-2-(1-methyl-2-oxopyrrolidin-3-yl)-1,1-dioxido-2,3-dihydrobenzo[d]isothiazol-5-yl)amino)-1H-pyrazol-5-yl)cyclopentyl isopropylcarbamate]
6.35	8.28	CC(C)NC(=O)O[C@H]1CC[C@@H](c2cc(Nc3ccc4c(c3F)CN(CC3COC3)S4(=O)=O)n[nH]2)C1 (relative stereo) [Example 97, cis-3-(3-((4-fluoro-2-(oxetan-3-ylmethyl)-1,1-dioxido-2,3-dihydrobenzo[d]isothiazol-5-yl)amino)-1H-pyrazol-5-yl)cyclopentyl isopropylcarbamate]
6.28	7.92	CC(C)NC(=O)O[C@H]1CC[C@@H](c2cc(Nc3ccc4c(c3F)CN(C[C@H](N)C(C)(C)C)S4(=O)=O)n[nH]2)C1 (relative stereo) [Example 99, cis-3-(3-((2-((R)-2-amino-3,3-dimethylbutyl)-4-fluoro-1,1-dioxido-2,3-dihydrobenzo[d]isothiazol-5-yl)amino)-1H-pyrazol-5-yl)cyclopentyl isopropylcarbamate]
6.63	8.28	CC(C)NC(=O)O[C@H]1CC[C@@H](c2cc(Nc3ccc4c(c3F)CN(C3CCN(C)C(=O)C3)S4(=O)=O)n[nH]2)C1 (relative stereo) [Example 100, cis-3-(3-((4-fluoro-2-(1-methyl-2-oxopiperidin-4-yl)-1,1-dioxido-2,3-dihydrobenzo[d]isothiazol-5-yl)amino)-1H-pyrazol-5-yl)cyclopentyl isopropylcarbamate]
6.61	8.24	CC(C)NC(=O)O[C@H]1CC[C@@H](c2cc(Nc3ccc4c(c3F)CN(C(C)C3COC3)S4(=O)=O)n[nH]2)C1 (relative stereo) [Example 104, cis-3-(3-((4-fluoro-2-(1-(oxetan-3-yl)ethyl)-1,1-dioxido-2,3-dihydrobenzo[d]isothiazol-5-yl)amino)-1H-pyrazol-5-yl)cyclopentyl isopropylcarbamate]
6.27	8.02	CC(=O)N1CC(CN2Cc3c(ccc(Nc4cc([C@@H]5CC[C@H](OC(=O)NC(C)C)C5)[nH]n4)c3F)S2(=O)=O)C1 (relative stereo) [Example 107, cis-3-(3-((2-((1-acetylazetidin-3-yl)methyl)-4-fluoro-1,1-dioxido-2,3-dihydrobenzo[d]isothiazol-5-yl)amino)-1H-pyrazol-5-yl)cyclopentyl isopropylcarbamate]
6.65	8.57	CC(C)NC(=O)O[C@H]1CC[C@@H](c2cc(Nc3ccc4c(c3F)CN(CC3CCNC3=O)S4(=O)=O)n[nH]2)C1 (relative stereo) [Example 110, cis-3-(3-((4-fluoro-1,1-dioxido-2-((2-oxopyrrolidin-3-yl)methyl)-2,3-dihydrobenzo[d]isothiazol-5-yl)amino)-1H-pyrazol-5-yl)cyclopentyl isopropylcarbamate]
6.65	8.68	CC(C)NC(=O)O[C@H]1CC[C@@H](c2cc(Nc3ccc4c(c3F)CN(CC3CCN(C)C3=O)S4(=O)=O)n[nH]2)C1 (relative stereo) [Example 111, cis-3-(3-((4-fluoro-2-((1-methyl-2-oxopyrrolidin-3-yl)methyl)-1,1-dioxido-2,3-dihydrobenzo[d]isothiazol-5-yl)amino)-1H-pyrazol-5-yl)cyclopentyl isopropylcarbamate]
6.34	8.20	CC(C)NC(=O)O[C@H]1CC[C@@H](c2cc(Nc3ccc4c(c3F)CN(CCN3CCOCC3)S4(=O)=O)n[nH]2)C1 (relative stereo) [Example 112, cis-3-(3-((4-fluoro-2-(2-morpholinoethyl)-1,1-dioxido-2,3-dihydrobenzo[d]isothiazol-5-yl)amino)-1H-pyrazol-5-yl)cyclopentyl isopropylcarbamate]
6.54	8.44	CC(C)NC(=O)O[C@H]1CC[C@@H](c2cc(Nc3ccc4c(c3F)CN(CCCO)S4(=O)=O)n[nH]2)C1 (relative stereo) [Example 113, cis-3-(3-((4-fluoro-2-(3-hydroxypropyl)-1,1-dioxido-2,3-dihydrobenzo[d]isothiazol-5-yl)amino)-1H-pyrazol-5-yl)cyclopentyl isopropylcarbamate]
6.22	8.02	CC(C)NC(=O)O[C@H]1CC[C@@H](c2cc(Nc3ccc4c(c3F)CN(CCC3CCOCC3)S4(=O)=O)n[nH]2)C1 (relative stereo) [Example 114, cis-3-(3-((4-fluoro-1,1-dioxido-2-(2-(tetrahydro-2H-pyran-4-yl)ethyl)-2,3-dihydrobenzo[d]isothiazol-5-yl)amino)-1H-pyrazol-5-yl)cyclopentyl isopropylcarbamate]
6.39	8.22	CC(C)NC(=O)O[C@H]1CC[C@@H](c2cc(Nc3ccc4c(c3F)CN(C(C)C3CCOC3)S4(=O)=O)n[nH]2)C1 (relative stereo) [Example 115, cis-3-(3-((4-fluoro-1,1-dioxido-2-(1-(tetrahydrofuran-3-yl)ethyl)-2,3-dihydrobenzo[d]isothiazol-5-yl)amino)-1H-pyrazol-5-yl)cyclopentyl isopropylcarbamate]
